PMC6366430 (Journal of Enzyme Inhibition and Medicinal Chemistry, 2019)
“And” between values parts separate entries of the source, which are not always exact repeats. Equal values may be shown once. Read-outs that look alike come from different tables or passages of the source.

Legend:
BuChE from horse serum = molecular target: T1, BuChE from horse serum (Equus caballus, UniProt P81908); assay: biochemical; conditions: mean ± SD of triplicate independent experiments
T1 construct: equine serum butyrylcholinesterase (EqBuChE); from tissue; host or cells: equine (horse) serum
Experimental: (§1) Activity of enzymes and inhibition kinetics were determined using a Bio-Rad iMark microplate reader based on a modification of the Ellman method.[14] ^, [15] Compounds were dissolved in DMSO. The assay solution which contained 60 µL 5,5′-Dithiobis(2-nitrobenzoic acid) (DTNB) at 1.1 mM, 30 µL AChE/BuChE at 0.20 U/mL (initial concentration) and 150 µL tested compound solution with different concentrations. Absorbance was then recorded at λ = 415 nm. […]
(§2) serially diluted. Negative (without treatment) and vehicle (DMSO, final concentration 0.2% v/v for AChE and 0.8% v/v for BuChE) controls were kept for reference.
(§3) Following, there were added 60 μL of 5,5′-Dithiobis(2-nitrobenzoic acid) (DTNB, Ellman's reagent) at 1.1 mM and 30 μL of electric eel acetylcholinesterase (EeAChE) or equine serum butyrylcholinesterase (EqBuChE) at 0.20 U/mL in the presence of 1 mg/mL bovine serum albumin (BSA). Absorbance was then recorded using an iMark plate reader (Bio-Rad) equipped with a λ = 415 nm light filter and this measure used as […]
(§4) acetylthiocholine iodide (ACTI) or S-butyrylthiocholine iodide (BCTI) were added and the absorbance recorded after a 10-minute incubation at 30 °C at λ = 415 nm for 3 times within 30 seconds. Enzyme activity was calculated as percentage of untreated control discounting the blank reference. The final inhibitor concentration ranged from 100 – 0.00001 μM for AChE (dillution factor = 10) and from 400 – 0.1 μM for BuChE (dillution factor = 4). IC50 values were calculated on Graphpad Prism 7.0 using the non-linear regression model for dose-response inhibition. […]

AChE from electric eel = molecular target: T2, AChE from electric eel (Electrophorus electricus, UniProt O42275); assay: biochemical; conditions: for IC50: AChE from electric eel, mean ± SD of triplicate independent experiments
T2 construct: purchased Sigma-Aldrich
Experimental: as §1, §2, §3, §4

[1] = system: N2a cells (neuroblastoma); assay: N2a neuroblastoma cell viability, MTT assay; type: cell-based, murine; conditions: for Neuroblastoma cell viability, MTT reduction relative to control cells, Mean ± SD: 48 h; for cytotoxicity against N2a cells (in words): 48 h incubation, maximum tested concentration 50 µM
Experimental: N2a cells were cultured in Dulbecco’s modified Eagle’s medium supplemented with 10% fetal bovine serum and 0.1% gentamicin in a 5% CO2 atmosphere. N2a cells were transferred to a 96-well plate (∼10,000 cells/cm^2) and incubated for 24 h, before treatment with the compounds at 10 or 50 µM. Cell viability was evaluated by MTT (3-[4,5-dimethylthiazol-2-yl]-2,5-diphenyl tetrazolium bromide) assay.
Murine neuroblastoma cell (N2a) culture and cell viability assay.
N2a cells were cultured in Dulbecco’s modified Eagle’s medium supplemented with 10% fetal bovine serum and 0.1% gentamicin in a 5% CO2 atmosphere. N2a cells were transferred to a 96-well plate (~10,000 cells/cm2) and incubated for 24 h, before treatment with the compounds at 10 or 50 µM. After being treated, cells were grown for 48 hours. Cell viability was evaluated by MTT (3-[4,5-dimethylthiazol-2-yl]-2,5-diphenyl tetrazolium bromide) assay. MTT was added to a final concentration of 0.5 mg/mL into the wells (samples and controls), and the plates were incubated for 4 h at 37 °C. After, all the media was removed and produced formazan crystals were solubilized with DMSO and quantified by reading the OD at 570 nm in a 96-well plate reader (SpectraMax® Paradigm®, Molecular Devices). Means and standard deviations were calculated from triplicates.

[2] = molecular target: T3, equine serum butyrylcholinesterase (EqBuChE) (Equus caballus, UniProt P81908); assay: biochemical; type: biochemical; conditions: for inhibition type in BuChE: Lineweaver–Burk; for Ki’ (non-competitive inhibition constant) on BuChE / Ki: ± SD of triplicate; for Ki: read-out: Ki (competitive inhibition constant) on BuChE
T3 construct: equine serum butyrylcholinesterase (EqBuChE); from tissue; host or cells: equine (horse) serum
Experimental: as §1
(§5) The enzymatic kinetic of cholinesterase inhibition was determined according to adapted Ellman's method1. All of the solution were prepared in 0.02 M tris-HCl buffer (pH = 7.5), stock solutions of test compounds prepared in DMSO (50 mM), and the experiment conducted in triplicate. To a flat-bottom 96-well transparent plate were added 150μL of treatment solutions with inhibitors 4d and 6a at two different concentrations (Table 2) distributed in eight sets of triplicates each. Eight sets of untreated triplicates were used as negative control. Following, there were added 60 μL of 5,5′-Dithiobis(2-nitrobenzoic acid) (DTNB, Ellman's reagent) at 1.1 mM and 30 μL of electric eel acetylcholinesterase (EeAChE) or equine serum butyrylcholinesterase (EqBuChE) at 0.20 U/mL in presence of 1 mg/mL bovine serum albumin (BSA).
(§6) Absorbance was then recorded using an iMark plate reader (Bio-Rad) equipped with a λ = 415 nm light filter and this measure used as a blank reference. After 10-minute incubation at room temperature, 24 μL of acetylthiocholine iodide (ACTI) or S- […]
(§7) the absorbance recorded after incubation for 0, 5, 10, 15 and 20 minutes at room temperature at λ = 415 nm. The Lineweaver–Burk reciprocal plots were obtained by […]
(§8) plotting a 1/velocity versus 1/[substrate] graph for two different inhibitor concentrations […]
(§9) behavior, in ways the region to where the curves converge determine the type of inhibition observed. Ki, Ki' (competitive and noncompetitive inhibition constants respectively), Km (Michaelis-Menten constant) and Vmax values were calculated with Graphpad Prism 7.0 using the non-linear regression models for enzyme kinetics - inhibiton and enzyme kinects - substrate vs. velocity.

[3] = molecular target: T4, electric eel acetylcholinesterase (EeAChE) (Electrophorus electricus, UniProt O42275); assay: biochemical; type: biochemical; conditions: for inhibition type in AChE: Lineweaver–Burk; for Ki’ (non-competitive inhibition constant) on AChE / Ki: ± SD of triplicate; for Ki: read-out: Ki (competitive inhibition constant) on AChE
T4 construct: purchased Sigma-Aldrich
Experimental: as §1, §5, §6, §7, §8, §9

[4] = Ferric reducing ability of plasma (FRAP) antioxidant assay; conditions: 50 µM final concentration, 10 min at 37 °C
Experimental: A 0.5 ml solution of coumarin compounds in methanol (50 µM final concentration) was mixed with 4.5 ml of the FRAP reagent. After 10 min of incubation at 37 °C, absorbance at 593 nm was measured using methanol as blank.[20] ^, [21] The calibration curve was prepared with quercetin and the results expressed as: antioxidant index based on quercetine (Q) (mmol Q/mol). The analyses were performed in triplicate.
FRAP solution was freshly prepared by mixing 25 mL acetate buffer (0.30 M) at pH
3.6, 2.5 mL ferric chloride (20 mM) and 2.5 mL 2,4,6-tris(2-pyridyl)-s-triazine (10
mM). In a test tube containing 4.5 mL of FRAP reagent were added 0.5 mL of 500 µM
solutions of 4a-d, 5a-c and 6a-c (in methanol). After a 10-minute incubation at 37°C the
absorbance was recorded in a spectrophotometer at λ = 593 nm using methanol as blank
reference11. A standard curve was obtained by plotting the absorbance read after
of quercetin (Q) equivalent to mol of inhibitor (mmol Q/mol), obtained in triplicates.

T3 sequence (P81908 whole entry): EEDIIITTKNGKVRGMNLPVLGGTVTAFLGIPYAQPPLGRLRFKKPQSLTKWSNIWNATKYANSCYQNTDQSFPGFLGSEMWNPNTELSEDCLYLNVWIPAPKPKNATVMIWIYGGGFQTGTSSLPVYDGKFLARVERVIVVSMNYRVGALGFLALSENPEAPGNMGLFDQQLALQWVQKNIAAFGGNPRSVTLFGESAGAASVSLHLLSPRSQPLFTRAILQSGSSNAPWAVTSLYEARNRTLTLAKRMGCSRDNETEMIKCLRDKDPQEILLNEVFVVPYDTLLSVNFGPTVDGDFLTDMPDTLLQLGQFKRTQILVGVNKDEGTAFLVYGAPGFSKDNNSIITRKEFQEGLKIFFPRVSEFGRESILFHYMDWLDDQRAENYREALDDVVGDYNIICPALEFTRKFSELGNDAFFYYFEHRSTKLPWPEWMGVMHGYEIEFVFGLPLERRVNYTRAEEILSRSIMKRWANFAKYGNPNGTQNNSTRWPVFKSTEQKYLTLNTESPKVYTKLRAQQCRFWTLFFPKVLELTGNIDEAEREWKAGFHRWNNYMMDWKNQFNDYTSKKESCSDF
T1 sequence (P81908 whole entry): as above
T4 sequence (O42275 24-633): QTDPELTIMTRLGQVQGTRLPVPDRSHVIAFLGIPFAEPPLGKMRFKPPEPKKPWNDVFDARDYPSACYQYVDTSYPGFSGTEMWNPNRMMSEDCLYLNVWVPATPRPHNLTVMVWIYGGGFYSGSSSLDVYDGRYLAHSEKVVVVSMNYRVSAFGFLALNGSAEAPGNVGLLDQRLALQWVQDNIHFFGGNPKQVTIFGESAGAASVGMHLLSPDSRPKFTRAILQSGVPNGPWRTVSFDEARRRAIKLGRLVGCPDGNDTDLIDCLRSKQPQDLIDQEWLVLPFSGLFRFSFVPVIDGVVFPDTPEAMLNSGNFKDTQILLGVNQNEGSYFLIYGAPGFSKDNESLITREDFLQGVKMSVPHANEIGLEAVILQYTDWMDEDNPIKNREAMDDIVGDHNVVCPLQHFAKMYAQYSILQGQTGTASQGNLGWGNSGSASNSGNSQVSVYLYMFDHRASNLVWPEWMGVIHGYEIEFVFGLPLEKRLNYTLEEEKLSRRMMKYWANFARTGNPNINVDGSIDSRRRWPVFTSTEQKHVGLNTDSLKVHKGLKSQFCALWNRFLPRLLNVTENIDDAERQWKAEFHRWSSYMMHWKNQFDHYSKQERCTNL
T2 sequence (O42275 24-633): as above

Structure (SMILES)	IC50 (BuChE from horse serum)	IC50 (AChE from electric eel; read-out: IC50(μM)±SD AChE)	SI (selectivity index, BuChE IC50/AChE IC50) (AChE from electric eel)	Neuroblastoma cell viability, MTT reduction relative to control cells, Mean ± SD ([1]; 10 µM)	Neuroblastoma cell viability, MTT reduction relative to control cells, Mean ± SD ([1]; 50 µM)	cytotoxicity against N2a cells (in words) [1]	FRAP value, antioxidant index based on quercetine (Q) [4]	other results
O=c1oc2cc(OCCN3CCCCC3)ccc2cc1Br [Compound 4a]	8.37 ± 0.167 µM	0.18 ± 0.009 µM	47	89.16 ± 11.28%	103.2 ± 13.68%	not cytotoxic	–	–
O=c1oc2cc(OCCCN3CCCCC3)ccc2cc1Br [Compound 4b]	15.87 ± 0.007 µM	0.37 ± 0.008 µM	42	93.34 ± 8.19%	87.60 ± 4.39%	–	–	–
O=c1oc2cc(OCCCCN3CCCCC3)ccc2cc1Br [Compound 4c]	4.92 ± 0.095 µM	0.55 ± 0.01 µM	9	94.43 ± 4.28%	88.88 ± 19.01%	–	–	–
O=c1oc2cc(OCCCCCN3CCCCC3)ccc2cc1Br [Compound 4d]	5.01 ± 0.253 µM	0.14 µM and 0.15 µM	33	80.10 ± 7.27%	62.11 ± 10.09%	–	–	inhibition type in BuChE [2]: mixed-type inhibition; Vmax on BuChE ([2]; inhibitor 0.1 μM (so in the source)): 5.791 ± 0.185 µM/min; Vmax on BuChE ([2]; inhibitor 0.2 μM (so in the source)): 4.669 ± 0.229 µM/min; Ki’ (non-competitive inhibition constant) on BuChE [2]: 6621 ± 322 nM; Ki [2]: 2130 ± 148 nM; inhibition type in AChE [3]: mixed-type inhibition; Vmax on AChE ([3]; inhibitor 0.1 μM): 2.209 ± 0.060 µM/min; Vmax on AChE ([3]; inhibitor 0.2 μM): 1.752 ± 0.198 µM/min; Ki’ (non-competitive inhibition constant) on AChE [3]: 157.350 ± 4.674 nM; Ki [3]: 21.3 ± 0.816 nM
O=c1oc2cc(OCCN3CCCCC3)ccc2cc1-c1ccccc1 [Compound 5a]	2.5 ± 0.177 µM	0.14 ± 0.009 µM	18	98.37 ± 8.92%	105.5 ± 14.93%	not cytotoxic	–	–
O=c1oc2cc(OCCCN3CCCCC3)ccc2cc1-c1ccccc1 [Compound 5b]	1.86 ± 0.024 µM	0.24 ± 0.014 µM	8	83.55 ± 6.58%	57.06 ± 8.72%	increase in toxicity	–	–
O=c1oc2cc(OCCCCCN3CCCCC3)ccc2cc1-c1ccccc1 [Compound 5c]	0.9 ± 0.001 µM	0.45 ± 0.036 µM	2	117.4 ± 4.86%	13.47 ± 1.19%	increase in toxicity	–	–
CN(C)c1ccc(-c2cc3ccc(OCCN4CCCCC4)cc3oc2=O)cc1 [Compound 6a]	6.73 ± 0.04 µM	–	354	92.15 ± 43.03%	115.9 ± 4.28%	not cytotoxic	7.49 ± 0.61 mmol Q/mol	IC50 (AChE from electric eel; IC50(μM)±SD AChE): 0.02 ± 0.001 µM; inhibition type in BuChE [2]: mixed-type inhibition; Vmax on BuChE ([2]; inhibitor 0.01 μM (so in the source)): 4.837 ± 0.399 µM/min; Vmax on BuChE ([2]; inhibitor 0.03 μM (so in the source)): 3.224 ± 0.284 µM/min; Ki’ (non-competitive inhibition constant) on BuChE [2]: 7376 ± 558 nM; Ki [2]: 2580 ± 236 nM; Ki’ (noncompetitive) against AChE [3]: 10 nM; inhibition type in AChE [3]: mixed-type inhibition; Vmax on AChE ([3]; inhibitor 0.01 μM): 1.762 ± 0.128 µM/min; Vmax on AChE ([3]; inhibitor 0.03 μM): 1.254 ± 0.043 µM/min; Ki’ (non-competitive inhibition constant) on AChE [3]: 10.499 ± 0.438 nM; Ki [3]: 1.61 ± 0.066 nM
CN(C)c1ccc(-c2cc3ccc(OCCCN4CCCCC4)cc3oc2=O)cc1 [Compound 6b]	7.27 ± 0.273 µM	0.33 ± 0.011 µM	22	84.11 ± 11.1%	16.79 ± 8.41%	increase in toxicity	2.42 ± 0.19 mmol Q/mol	–
CN(C)c1ccc(-c2cc3ccc(OCCCCCN4CCCCC4)cc3oc2=O)cc1 [Compound 6c]	3.85 ± 0.19 µM	0.92 µM and 0.96 µM	4	59.04 ± 8.21%	10.09 ± 3.09%	increase in toxicity	2.77 ± 0.00 mmol Q/mol	–
